Experimental data published in US9744220B2, “Compositions and methods for treating inflammatory diseases” (priority 2013, dated 2017).

B1: truncated PDNF corresponding to amino acids 1-445 of SEQ ID NO:2: bacterially-expressed truncated PDNF, amino acids 1-445 of SEQ ID NO:2 (protein, listed as Trypanosoma cruzi)
chain: MGKTVVVASRMFWLMFFVPLLLAICPSEPAYALAPGSSRVELFKRKNSTVPFEDKAGKVTERVVHSFRLPALVNVDGVMVAIADARYDTSNDNSLIDTVAKYSVDDGETWETQIAIKNSRVSSVSRVVDPTVIVKGNKLYVLVGSYYSSRSYWSSHGDARDWDILLAVGEVTKSTAGGKITASIKWGSPVSLKKFFPAEMEGMHTNQFLGGAGVAIVASNGNLVYPVQVTNKKKQVFSKIFYSEDDGKTWKFGKGRSDFGCSEPVALEWEGKLIINTRVDWKRRLVYESSDMEKPWVEAVGTVSRVWGPSPKSNQPGSQSSFTAVTIEGMRVMLFTHPLNFKGRWLRDRLNLWLTDNQRIYNVGQVSIGDENSAYSSVLYKDDKLYCLHEINTDEVYSLVFARLVGELRIIKSVLRSWKNWDSHLSSICTPADPAASSSESGCGP
B2: truncated PDNF equivalent to amino acids 1-425 of SEQ ID NO:2: truncated PDNF, amino acids 1-425 of SEQ ID NO:2 (protein, listed as Trypanosoma cruzi)
chain: MGKTVVVASRMFWLMFFVPLLLAICPSEPAYALAPGSSRVELFKRKNSTVPFEDKAGKVTERVVHSFRLPALVNVDGVMVAIADARYDTSNDNSLIDTVAKYSVDDGETWETQIAIKNSRVSSVSRVVDPTVIVKGNKLYVLVGSYYSSRSYWSSHGDARDWDILLAVGEVTKSTAGGKITASIKWGSPVSLKKFFPAEMEGMHTNQFLGGAGVAIVASNGNLVYPVQVTNKKKQVFSKIFYSEDDGKTWKFGKGRSDFGCSEPVALEWEGKLIINTRVDWKRRLVYESSDMEKPWVEAVGTVSRVWGPSPKSNQPGSQSSFTAVTIEGMRVMLFTHPLNFKGRWLRDRLNLWLTDNQRIYNVGQVSIGDENSAYSSVLYKDDKLYCLHEINTDEVYSLVFARLVGELRIIKSVLRSWKNWDSHL

Assays:
[1] = tested on: Trk; assay: Pharmacological Trk inhibition of sPDNF-stimulated H9c2 cardiomyocytes; type: cell-based, rat; details: K252a 200 nM 1 hr pre-incubation, sPDNF 1 μg/ml 3 hr
Description: Pharmacological inhibition: H9c2 cardiomyocytes were stimulated with sPDNF (1 μg/ml, 3 hr) without pretreatment (sPDNF) or after pretreatment with K252a (200 nM, 1 hr) (K252a+sPDNF), and transcripts of MCP-1 (FIG. 9A) and FKN (FIG. 9B) quantified by qPCR. Chemokine gene expression was normalized to HPRT and fold change calculated relative to vehicle-treated cells. Bars represent mean±SD fold change expression of duplicate samples, *P<0.05 and **P<0.01; experiment performed three times, each giving similar results.
First, H9c2 cardiomyocytes were pre-incubated (1 hr) with the Trk antagonist K252a, which blocks Trk signaling by inhibiting Trk autophosphorylation (53), followed by stimulation (3 hr) with sPDNF (1 μg/ml) or vehicle PBS, and quantification of MCP-1 and FKN transcripts by qPCR.
H9c2 cells were pre-treated with 0.1% DMSO vehicle control or 200 nM K252a for 1 h prior to addition of sPDNF (1 μg/ml). Supernatants and cell monolayers were collected for quantification of secreted chemokines and cells were harvested for mRNA quantification by qPCR.

[2] = tested on: TrkA-positive PC12 cells; details: bacterially-expressed truncated PDNF; cited from earlier work

Molecule	effect on sPDNF stimulation of FKN transcripts [1]	effect on sPDNF stimulation of MCP-1 transcripts [1]	survival and differentiation of TrkA-positive PC12 cells [2]
COC(=O)[C@@]1(O)C[C@H]2O[C@]1(C)n1c3ccccc3c3c4c(c5c6ccccc6n2c5c31)C(=O)NC4 [K252a]	completely abrogated	completely abrogated	
B1			promoted survival and differentiation
B2			did not
